Laboratory results taken from patent US7935722B2 (Eli Lilly and Company, priority 2005, dated 2011).
Several values for one entry are separate records, joined by “and”; a condition that tells them apart may be missing. Identical values can stand only once. Like-named read-outs stand apart in the source and are kept apart here.

Assays:
[1] = target: T1, human AR (androgen receptor) (Homo sapiens, UniProt P10275); test: Steroid hormone nuclear receptor binding assay, AR binding
T1 construct: expressed in transfected cells; host or cells: 293 cells (293-AR lysate)
T1 sequence (P10275 1-920): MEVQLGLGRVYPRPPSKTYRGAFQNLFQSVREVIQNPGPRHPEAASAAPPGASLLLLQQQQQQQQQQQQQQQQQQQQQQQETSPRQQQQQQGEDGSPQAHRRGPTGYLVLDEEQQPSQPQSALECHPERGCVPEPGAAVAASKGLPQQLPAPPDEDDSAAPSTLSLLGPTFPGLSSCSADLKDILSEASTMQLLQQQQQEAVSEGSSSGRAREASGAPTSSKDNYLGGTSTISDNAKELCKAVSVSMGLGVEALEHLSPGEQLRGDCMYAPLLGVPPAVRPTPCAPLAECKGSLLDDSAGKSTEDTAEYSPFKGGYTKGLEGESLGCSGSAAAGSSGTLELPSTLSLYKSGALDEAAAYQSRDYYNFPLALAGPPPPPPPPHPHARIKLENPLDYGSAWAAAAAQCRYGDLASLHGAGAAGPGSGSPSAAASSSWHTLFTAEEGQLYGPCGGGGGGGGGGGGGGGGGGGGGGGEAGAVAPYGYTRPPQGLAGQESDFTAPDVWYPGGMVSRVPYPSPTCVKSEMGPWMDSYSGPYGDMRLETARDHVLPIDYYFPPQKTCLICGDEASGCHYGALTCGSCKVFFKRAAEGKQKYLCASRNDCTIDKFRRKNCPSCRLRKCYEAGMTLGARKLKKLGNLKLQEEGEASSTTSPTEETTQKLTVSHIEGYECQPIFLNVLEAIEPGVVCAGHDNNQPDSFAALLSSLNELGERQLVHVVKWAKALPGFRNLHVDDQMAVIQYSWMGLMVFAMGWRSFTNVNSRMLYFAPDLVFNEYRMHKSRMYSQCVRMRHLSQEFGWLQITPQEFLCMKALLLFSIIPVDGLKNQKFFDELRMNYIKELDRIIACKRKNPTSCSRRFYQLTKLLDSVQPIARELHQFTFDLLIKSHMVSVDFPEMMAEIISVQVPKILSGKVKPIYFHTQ
Procedure, shortened: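 Competition binding with lysates of 293 cells overexpressing human AR, [3H]-methyltrienolone tracer, compounds from about 0.01 nM to 10 μM, overnight at 4 °C; non-specific binding set with 500 nM methyltrienolone. Bound tracer counted by scintillation after charcoal-dextran separation; IC50 converted to Ki by Cheng-Prusoff using Kd from saturation binding.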

[2] = target: T2, human androgen receptor (AR) (Homo sapiens, UniProt P10275); test: C2C12 AR/ARE reporter assay; format: cell-based
T2 construct: expressed in transfected cells; host or cells: mouse myoblast C2C12 cells, transiently co-transfected
T2 sequence (P10275 1-920): T1 sequence (P10275 1-920)
Procedure, shortened: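 Mouse C2C12 myoblasts co-transfected with AR/ARE reporter were plated in charcoal-stripped serum and treated for 48 h with compound from about 0.01 nM to 10 μM. Luciferase activity gave EC50 by 4-parameter logistic fit. Efficacy is expressed as % of maximal stimulation by 10 nM methyltrienolone.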

[3] = C2C12, read-out: C2C12 % Efficacy
[4] = average of n trials, read-out: AR binding Ki
[5] = C2C12 AR/ARE reporter assay, average of n trials, read-out: C2C12 % Efficacy
[6] = C2C12 AR/ARE reporter assay, average of n trials, read-out: C2C12 EC50

Compound	Ki [1] [nM]	EC50 [2] [nM]	Emax [2, 3] [%]	melting point	Ki [1, 4] [nM]	Emax [2, 5] [%]	EC50 [2, 6] [nM]	Ki ([1]; read-out: AR binding Ki, average of n trials) [nM]	EC50 ([2]; read-out: C2C12 EC50, C2C12 AR/ARE reporter assay, average of n trials) [nM]
Cc1cc(-c2ccc3c(c2)c2c(n3Cc3cccc(F)c3)CC[C@@H](NC(=O)C3CC3)C2)no1 [Example 204, (R)-Cyclopropanecarboxylic acid[9-(3-fluoro-benzyl)-6-(5-methyl-isoxazol-3-yl)-2,3,4,9-tetrahydro-1H-carbazol-3-yl]-amide]	6.8	2.7	90.8	190 to 192 °C	–	–	–	–	–
CC(C)C(=O)NC1CCc2c(c3cc(C#N)ccc3n2Cc2ncccc2F)C1 (stereo not drawn) [Example 182, N-[6-Cyano-9-(3-fluoro-pyridin-2-ylmethyl)-2,3,4,9-tetrahydro-1H-carbazol-3-yl]-isobutyramide]	28.4	151	88.7	213 to 216 °C	–	–	–	–	–
CO/N=C/c1ccc2c(c1)c1c(n2Cc2cccc(F)c2)CCC(NC(=O)C(C)C)C1 (stereo not drawn) [Example 199, N-[9-(3-Fluoro-benzyl)-6-(methoxyimino-methyl)-2,3,4,9-tetrahydro-1H-carbazol-3-yl]-isobutyramide]	–	–	–	180 to 182 °C	6.6	83.6	1.8	–	–
Cc1ccc2c(c1)c1c(n2Cc2cccc(C#N)c2)CCC(NC(=O)C(C)C)C1 (stereo not drawn) [Example 50]	150	940	45.8	209 to 211 °C	–	–	–	–	–
CC(C)C(=O)NC1CCc2c(c3cc(-c4ccccn4)ccc3n2Cc2cccc(F)c2)C1 (stereo not drawn) [Example 131, N-[9-(3-Fluorobenzyl)-6-pyridin-2-yl-2,3,4,9-tetrahydro-1H-carbazol-3-yl]isobutyramide]	118	65.2	91.3	228 to 230 °C	–	–	–	–	–
COc1ccc2c(c1)c1c(n2Cc2ccccc2)CCC(NC(C)=O)C1 (stereo not drawn) [Example 65, N-(9-Benzyl-6-methoxy-2,3-4,9-tetrahydro-1H-carbazol-3-yl)-acetamide]	–	–	–	184 to 185 °C	58.4	87.3	40.5	–	–
CC(C)C(=O)NC1CCc2c(c3cc(Br)ccc3n2Cc2ccccc2C#N)C1 (stereo not drawn) [Example 33]	13	433	87.3	240 to 241.5 °C	–	–	–	–	–
CC(C)C(=O)NC1CCc2c(c3cc(F)ccc3n2Cc2ccccc2C#N)C1 (stereo not drawn) [Example 7]	99.6	–	35.8	164 to 167 °C	–	–	–	–	–
CC(C)C(=O)NC1CCc2c(c3cc(Br)ccc3n2Cc2cccc(F)c2)C1 (stereo not drawn) [Example 1, N-[9-(3-Fluorobenzyl)-6-bromo-2,3,4,9-tetrahydro-1H-carbazol-3-yl]isobutyramide]	–	–	–	177 to 179 °C	–	–	–	2.6	2.3
CC(C)C(=O)NC1CCc2c(c3cc(C#N)ccc3n2Cc2ccccc2OC(F)F)C1 (stereo not drawn) [Example 97, N-[6-Cyano-9-(2-difluoromethoxy-benzyl)-2,3,4,9-tetrahydro-1H-carbazol-3-yl]-isobutyramide]	4.6	32.8	102	217 to 219 °C	–	–	–	–	–
COc1cc2c3c(n(Cc4cccc(F)c4)c2cc1Cl)CCC(NC(=O)C(C)C)C3 (stereo not drawn) [Example 59]	59	242	39.5	212 to 215 °C	–	–	–	–	–
CC(C)C(=O)NC1CCc2c(c3cc(C#N)ccc3n2Cc2ccccc2C(F)(F)F)C1 (stereo not drawn) [Example 96, N-[6-Cyano-9-(2-trifluoromethyl-benzyl)-2,3,4,9-tetrahydro-1H-carbazol-3-yl]-isobutyramide]	14.7	123	88	222 to 225 °C	–	–	–	–	–
N#Cc1ccc2c(c1)c1c(n2Cc2cccc(F)c2)CCC(NC(=O)C2CC2)C1 (stereo not drawn) [Example 193, Cyclopropanecarboxylic acid[6-cyano-9-(3-fluorobenzyl)-2,3,4,9-tetrahydro-1H-carbazol-3-yl]amide]	4.3	7.9	92.7	208 to 210 °C and 207 to 209 °C	–	–	–	–	–
CC(C)C(=O)NC1CCc2c(c3cc(Br)ccc3n2Cc2ccccc2F)C1 (stereo not drawn) [Example 31]	5.3	58.7	70.8	194 to 197 °C	–	–	–	–	–
CC(C)C(=O)NC1CCc2c(c3ccccc3n2Cc2cccc(F)c2)C1 (stereo not drawn) [Example 3]	10.1	194	66.4	170 to 172 °C	–	–	–	–	–
CO/N=C/c1ccc2c(c1)c1c(n2Cc2cccc(F)n2)CC[C@@H](NC(=O)C2CC2)C1 [Example 209]	7.8	1.1	95.7	223 to 225 °C	–	–	–	–	–
N#Cc1ccc2c(c1)c1c(n2Cc2ccccn2)CC[C@@H](NC(=O)C2CC2)C1 [Example 196, Cyclopropanecarboxylic acid[6-cyano-9-(pyridin-2-ylmethyl)-2,3,4,9-tetrahydro-1H-carbazol-3-yl]-amide]	16.1	15.3	95.2	239 to 241 °C	–	–	–	–	–
CC(C)C(=O)NC1CCc2c(c3cc(F)ccc3n2Cc2ccc(F)cc2)C1 (stereo not drawn) [Example 12]	25	186	50	166 to 168 °C	–	–	–	–	–
Cc1ccc2c(c1)c1c(n2Cc2ccccc2)CCC(NC(=O)C(C)C)C1 (stereo not drawn) [Example 42]	63.6	30.4	73	197 to 199 °C	–	–	–	–	–
CC(C)C(=O)NC1CCc2c(c3cc(Cl)ccc3n2Cc2ccccc2Cl)C1 (stereo not drawn) [Example 18]	10.5	153	82.1	197 to 199 °C	–	–	–	–	–
Cc1ccc2c(c1)c1c(n2Cc2cccc(Cl)c2)CCC(NC(=O)C(C)C)C1 (stereo not drawn) [Example 48]	9.4	116	69.5	190 to 192 °C	–	–	–	–	–
CO/N=C/c1ccc2c(c1)c1c(n2Cc2ccccn2)CCC(NC(=O)C2CC2)C1 (stereo not drawn) [Example 207, Cyclopropanecarboxylic acid[6-(1-methoxyimino-methyl)-9-pyridin-2-ylmethyl-2,3,4,9-tetrahydro-1H-carbazol-3-yl]-amide]	41.6	11.6	93.3	88 to 92 °C	–	–	–	–	–
COc1ccccc1Cn1c2c(c3cc(F)ccc31)CC(NC(=O)C(C)C)CC2 (stereo not drawn) [Example 6]	156	1770	49.7	196 to 198 °C	–	–	–	–	–
CC(C)C(=O)NC1CCc2c(c3cc(Br)ccc3n2Cc2cccc(C#N)c2)C1 (stereo not drawn) [Example 38]	9.7	108	79.5	228 to 230 °C	–	–	–	–	–
Cc1cccc2c3c(n(Cc4cccc(F)c4)c12)CCC(NC(=O)C(C)C)C3 (stereo not drawn) [Example 60]	35.9	299	74.2	188 to 191 °C	–	–	–	–	–
CC(C)C(=O)NC1CCc2c(c3cc(F)ccc3n2Cc2cccc(C#N)c2)C1 (stereo not drawn) [Example 11]	61.5	2180	36.3	184 to 186 °C	–	–	–	–	–
CC(C)C(=O)N[C@H]1CCc2c(c3cc(C#N)ccc3n2Cc2cccc(F)c2)C1 [Example 124, (S)-N-(6-Cyano-9-(3-fluorobenzyl)-2,3,4,9-tetrahydro-1H-carbazol-3-yl)isobutyramide]	195	1110	49.9	223 to 225 °C	–	–	–	–	–
CC(C)C(=O)NC1CCc2c(c3cc(F)ccc3n2Cc2cccc(F)c2)C1 (stereo not drawn) [Example 8]	2.5	57.8	108	181 to 184 °C	–	–	–	–	–
CC(C)C(=O)N[C@@H]1CCc2c(c3cc(C#N)ccc3n2Cc2cccc(F)c2)C1 (single isomer, unassigned) [Example 123]	1	1.8	87	223 to 225 °C	–	–	–	–	–
